Measured values reported in the kinase profiling compilation of Christmann-Franck et al. (2016).

Legend:
Assay in all cases: radiometric filter-binding kinase assay, Kinase HotSpot
Conditions in all cases: compound 0.5 µM; ATP 10 µM
MARK1 (human) = MARK1 (human) (UniProt Q9P0L2)
PRKCB2 (human) = PRKCB2 (human) (UniProt P05771)
WNK2 (human) = WNK2 (human) (UniProt Q9Y3S1)
INSR (human) = INSR (human) (UniProt P06213)
TEK (human) = TEK (human) (UniProt Q02763)
STK17A (human) = STK17A (human) (UniProt Q9UEE5)
DSTYK (human) = DSTYK (human) (UniProt Q6XUX3)
CDK6 CCND1 (human) = CDK6 CCND1 (human) (UniProt Q00534+P24385)
STK4 (human) = STK4 (human) (UniProt Q13043)
MAP3K2 (human) = MAP3K2 (human) (UniProt Q9Y2U5)
PRKD2 (human) = PRKD2 (human) (UniProt Q9BZL6)
MUSK (human) = MUSK (human) (UniProt O15146)
PRKCG (human) = PRKCG (human) (UniProt P05129)
PAK1 (human) = PAK1 (human) (UniProt Q13153)
STK38 (human) = STK38 (human) (UniProt Q15208)
GRK5 (human) = GRK5 (human) (UniProt P34947)
CLK2 (human) = CLK2 (human) (UniProt P49760)
CAMK2B (human) = CAMK2B (human) (UniProt Q13554)
EPHA1 (human) = EPHA1 (human) (UniProt P21709)
MAP3K11 (human) = MAP3K11 (human) (UniProt Q16584)
DAPK2 (human) = DAPK2 (human) (UniProt Q9UIK4)
MINK1 (human) = MINK1 (human) (UniProt Q8N4C8)
STK39 (human) = STK39 (human) (UniProt Q9UEW8)
MYLK (human) = MYLK (human) (UniProt Q15746)
SRPK2 (human) = SRPK2 (human) (UniProt P78362)
NTRK2 (human) = NTRK2 (human) (UniProt Q16620)
STK11 (human) = STK11 (human) (UniProt Q15831)
MAP4K4 (human) = MAP4K4 (human) (UniProt O95819)
NTRK3 (human) = NTRK3 (human) (UniProt Q16288)
AKT3 (human) = AKT3 (human) (UniProt Q9Y243)
NLK (human) = NLK (human) (UniProt Q9UBE8)
MET (human) = MET (human) (UniProt P08581)
RPS6KA5 KD2 (human) = RPS6KA5 KD2 (human) (UniProt O75582)
DCLK2 (human) = DCLK2 (human) (UniProt Q8N568)
MAP3K9 (human) = MAP3K9 (human) (UniProt P80192)
MAPK13 (human) = MAPK13 (human) (UniProt O15264)
ADRBK2 (human) = ADRBK2 (human) (UniProt P35626)
LCK (human) = LCK (human) (UniProt P06239)
IGF1R (human) = IGF1R (human) (UniProt P08069)
SRC (human) = SRC (human) (UniProt P12931)
MAP3K7 TAB1 (human) = MAP3K7 TAB1 (human) (UniProt O43318+Q15750)
ERBB2 (human) = ERBB2 (human) (UniProt P04626)

Chain of MAP3K7 TAB1 (human) (O43318 whole entry, looked up): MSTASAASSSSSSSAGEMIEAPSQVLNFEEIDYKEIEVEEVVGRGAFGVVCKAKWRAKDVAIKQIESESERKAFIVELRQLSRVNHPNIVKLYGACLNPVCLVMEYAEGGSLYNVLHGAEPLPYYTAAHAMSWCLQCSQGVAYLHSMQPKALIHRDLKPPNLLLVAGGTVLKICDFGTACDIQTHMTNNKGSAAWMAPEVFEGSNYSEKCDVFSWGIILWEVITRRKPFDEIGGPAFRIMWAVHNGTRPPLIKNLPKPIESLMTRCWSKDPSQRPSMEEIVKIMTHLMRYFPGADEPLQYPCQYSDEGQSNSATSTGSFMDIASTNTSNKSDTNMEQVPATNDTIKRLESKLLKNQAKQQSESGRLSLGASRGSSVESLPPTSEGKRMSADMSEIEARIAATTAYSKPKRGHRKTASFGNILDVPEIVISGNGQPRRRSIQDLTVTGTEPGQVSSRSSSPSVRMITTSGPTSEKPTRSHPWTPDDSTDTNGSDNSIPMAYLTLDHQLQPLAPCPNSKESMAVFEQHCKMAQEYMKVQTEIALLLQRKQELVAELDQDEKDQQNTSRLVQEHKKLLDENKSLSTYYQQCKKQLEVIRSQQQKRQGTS
Chain of MAP3K7 TAB1 (human) (Q15750 whole entry, looked up): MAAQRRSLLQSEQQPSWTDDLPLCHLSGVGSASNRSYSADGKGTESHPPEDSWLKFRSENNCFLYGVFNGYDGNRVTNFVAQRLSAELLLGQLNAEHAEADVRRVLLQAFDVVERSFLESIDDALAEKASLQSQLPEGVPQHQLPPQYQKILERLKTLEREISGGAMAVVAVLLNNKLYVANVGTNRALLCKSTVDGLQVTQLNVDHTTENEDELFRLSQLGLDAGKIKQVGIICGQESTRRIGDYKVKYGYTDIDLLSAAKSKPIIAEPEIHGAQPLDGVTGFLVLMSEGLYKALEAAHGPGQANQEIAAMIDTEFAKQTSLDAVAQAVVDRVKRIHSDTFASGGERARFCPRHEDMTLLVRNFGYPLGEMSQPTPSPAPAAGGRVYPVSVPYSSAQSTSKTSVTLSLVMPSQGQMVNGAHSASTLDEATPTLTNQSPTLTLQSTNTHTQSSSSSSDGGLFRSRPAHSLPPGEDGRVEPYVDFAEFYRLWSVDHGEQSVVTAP
Chain of AKT3 (human) (Q9Y243 whole entry, looked up): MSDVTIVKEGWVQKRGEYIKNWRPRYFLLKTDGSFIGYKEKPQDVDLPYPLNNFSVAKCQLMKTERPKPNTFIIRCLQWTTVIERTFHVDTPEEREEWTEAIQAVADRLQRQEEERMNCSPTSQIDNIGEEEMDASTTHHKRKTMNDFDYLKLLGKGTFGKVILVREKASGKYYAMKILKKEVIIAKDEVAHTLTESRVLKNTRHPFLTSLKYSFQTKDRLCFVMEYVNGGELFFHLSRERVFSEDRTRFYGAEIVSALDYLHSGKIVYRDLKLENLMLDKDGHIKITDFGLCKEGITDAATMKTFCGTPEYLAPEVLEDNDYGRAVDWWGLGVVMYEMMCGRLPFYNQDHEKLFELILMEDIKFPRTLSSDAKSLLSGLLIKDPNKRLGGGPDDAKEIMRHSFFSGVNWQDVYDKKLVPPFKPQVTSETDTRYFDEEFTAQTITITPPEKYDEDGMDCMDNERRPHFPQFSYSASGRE
Chain of NTRK2 (human) (Q16620 whole entry, looked up): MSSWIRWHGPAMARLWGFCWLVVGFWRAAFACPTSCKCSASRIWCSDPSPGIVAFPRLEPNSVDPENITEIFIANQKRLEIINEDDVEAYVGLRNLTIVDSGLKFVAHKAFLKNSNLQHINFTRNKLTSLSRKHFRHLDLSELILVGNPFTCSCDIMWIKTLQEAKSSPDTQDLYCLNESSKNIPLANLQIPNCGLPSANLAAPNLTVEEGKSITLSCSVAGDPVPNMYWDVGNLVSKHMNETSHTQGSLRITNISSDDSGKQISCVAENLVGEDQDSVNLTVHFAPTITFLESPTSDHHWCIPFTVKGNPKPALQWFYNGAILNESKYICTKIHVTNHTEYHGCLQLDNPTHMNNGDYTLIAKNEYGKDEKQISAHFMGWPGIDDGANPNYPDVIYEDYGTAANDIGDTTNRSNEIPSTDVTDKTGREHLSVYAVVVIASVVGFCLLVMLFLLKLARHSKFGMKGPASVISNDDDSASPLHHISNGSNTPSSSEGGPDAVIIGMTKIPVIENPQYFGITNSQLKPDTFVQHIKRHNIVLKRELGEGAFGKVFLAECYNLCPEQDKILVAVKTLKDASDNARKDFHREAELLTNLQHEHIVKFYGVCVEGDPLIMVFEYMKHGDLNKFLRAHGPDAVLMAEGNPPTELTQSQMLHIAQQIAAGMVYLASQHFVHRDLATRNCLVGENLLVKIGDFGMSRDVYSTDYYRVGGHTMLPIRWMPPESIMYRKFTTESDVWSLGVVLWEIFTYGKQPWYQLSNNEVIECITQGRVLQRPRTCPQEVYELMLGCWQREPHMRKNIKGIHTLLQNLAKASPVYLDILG
Chain of PRKD2 (human) (Q9BZL6 whole entry, looked up): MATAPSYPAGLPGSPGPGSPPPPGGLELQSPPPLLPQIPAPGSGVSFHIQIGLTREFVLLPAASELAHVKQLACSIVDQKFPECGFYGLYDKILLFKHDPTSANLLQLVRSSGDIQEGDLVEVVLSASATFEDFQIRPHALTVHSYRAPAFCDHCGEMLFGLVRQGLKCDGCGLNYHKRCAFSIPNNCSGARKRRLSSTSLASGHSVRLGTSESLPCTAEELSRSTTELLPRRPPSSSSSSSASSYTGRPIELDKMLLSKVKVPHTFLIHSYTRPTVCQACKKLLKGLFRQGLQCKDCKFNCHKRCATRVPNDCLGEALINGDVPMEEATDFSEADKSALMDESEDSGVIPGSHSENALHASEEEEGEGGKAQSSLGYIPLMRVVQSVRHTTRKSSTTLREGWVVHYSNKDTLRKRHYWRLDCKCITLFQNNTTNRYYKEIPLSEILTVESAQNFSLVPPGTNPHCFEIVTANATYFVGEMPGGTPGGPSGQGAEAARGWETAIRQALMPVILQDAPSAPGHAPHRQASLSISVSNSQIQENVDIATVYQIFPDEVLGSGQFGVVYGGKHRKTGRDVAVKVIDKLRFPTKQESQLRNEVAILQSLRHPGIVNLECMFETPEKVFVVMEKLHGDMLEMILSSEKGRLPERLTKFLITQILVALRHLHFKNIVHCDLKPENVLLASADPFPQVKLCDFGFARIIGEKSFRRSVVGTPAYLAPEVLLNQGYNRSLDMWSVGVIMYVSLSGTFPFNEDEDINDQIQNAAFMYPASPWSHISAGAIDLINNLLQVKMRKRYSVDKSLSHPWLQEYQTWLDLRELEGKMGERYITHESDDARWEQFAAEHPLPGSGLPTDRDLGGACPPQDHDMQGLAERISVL
Chain of NLK (human) (Q9UBE8 whole entry, looked up): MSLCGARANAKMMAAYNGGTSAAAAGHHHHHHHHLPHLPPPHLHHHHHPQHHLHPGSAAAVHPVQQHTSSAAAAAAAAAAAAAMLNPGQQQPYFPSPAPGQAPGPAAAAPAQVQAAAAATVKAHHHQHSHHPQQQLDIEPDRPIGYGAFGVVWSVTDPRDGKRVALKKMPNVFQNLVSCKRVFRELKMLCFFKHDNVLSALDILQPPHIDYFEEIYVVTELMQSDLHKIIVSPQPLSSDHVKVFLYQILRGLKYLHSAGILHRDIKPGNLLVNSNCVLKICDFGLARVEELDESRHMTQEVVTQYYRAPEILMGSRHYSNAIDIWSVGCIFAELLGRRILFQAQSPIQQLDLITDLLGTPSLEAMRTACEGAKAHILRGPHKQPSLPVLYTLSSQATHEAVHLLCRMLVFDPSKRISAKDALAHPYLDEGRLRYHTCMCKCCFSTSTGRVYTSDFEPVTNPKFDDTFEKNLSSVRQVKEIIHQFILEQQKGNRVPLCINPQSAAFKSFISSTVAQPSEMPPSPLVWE
Chain of DSTYK (human) (Q6XUX3 whole entry, looked up): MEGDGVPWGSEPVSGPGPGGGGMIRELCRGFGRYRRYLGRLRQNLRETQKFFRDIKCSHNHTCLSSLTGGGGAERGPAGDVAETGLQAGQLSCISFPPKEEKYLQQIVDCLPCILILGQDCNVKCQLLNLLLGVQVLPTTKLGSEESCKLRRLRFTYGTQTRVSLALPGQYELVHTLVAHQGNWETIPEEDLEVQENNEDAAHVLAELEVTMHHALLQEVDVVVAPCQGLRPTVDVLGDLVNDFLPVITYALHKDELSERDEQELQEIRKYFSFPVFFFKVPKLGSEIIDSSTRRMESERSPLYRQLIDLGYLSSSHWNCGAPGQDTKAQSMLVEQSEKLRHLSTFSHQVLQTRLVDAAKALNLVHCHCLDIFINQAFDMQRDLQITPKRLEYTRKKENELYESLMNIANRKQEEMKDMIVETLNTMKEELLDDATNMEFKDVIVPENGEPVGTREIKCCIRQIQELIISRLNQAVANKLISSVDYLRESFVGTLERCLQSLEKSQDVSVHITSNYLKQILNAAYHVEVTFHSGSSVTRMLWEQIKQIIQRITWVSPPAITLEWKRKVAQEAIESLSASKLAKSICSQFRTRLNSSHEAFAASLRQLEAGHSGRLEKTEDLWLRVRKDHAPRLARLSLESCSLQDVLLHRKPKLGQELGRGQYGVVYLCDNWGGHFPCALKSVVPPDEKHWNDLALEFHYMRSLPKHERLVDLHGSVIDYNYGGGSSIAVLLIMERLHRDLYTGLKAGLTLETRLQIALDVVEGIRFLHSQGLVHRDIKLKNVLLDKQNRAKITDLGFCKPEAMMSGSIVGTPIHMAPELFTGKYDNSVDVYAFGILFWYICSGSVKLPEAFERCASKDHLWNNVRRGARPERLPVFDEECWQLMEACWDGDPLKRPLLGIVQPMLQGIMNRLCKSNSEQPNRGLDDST

Compound `CCC(=O)Nc1ccc2ncnc(Nc3cccc(Br)c3)c2c1` has a residual activity (MARK1 (human)) of 98.5%, a residual activity (PRKCB2 (human)) of 101% and a residual activity (WNK2 (human)) of 107%. The residual activity (INSR (human)) was 101%, the residual activity (TEK (human)) was 91.2% and the residual activity (STK17A (human)) was 88.7%. It also gave a residual activity (DSTYK (human)) of 91.3%, a residual activity (CDK6 CCND1 (human)) of 92.5% and a residual activity (STK4 (human)) of 97.1%. For the same compound, the residual activity (MAP3K2 (human)) was 76.1%, the residual activity (PRKD2 (human)) was 85.1% and the residual activity (MUSK (human)) was 87.8%. It also gave a residual activity (PRKCG (human)) of 102%, a residual activity (PAK1 (human)) of 96.3% and a residual activity (STK38 (human)) of 100%. For the same compound, the residual activity (GRK5 (human)) was 107%, the residual activity (CLK2 (human)) was 101% and the residual activity (CAMK2B (human)) was 105%. It also gave a residual activity (EPHA1 (human)) of 89.5%, a residual activity (MAP3K11 (human)) of 97.1% and a residual activity (DAPK2 (human)) of 121%. For the same compound, the residual activity (MINK1 (human)) was 95.8%, the residual activity (STK39 (human)) was 96.1% and the residual activity (MYLK (human)) was 95.5%. For the same compound, the residual activity (SRPK2 (human)) was 88.6%, the residual activity (NTRK2 (human)) was 77.1% and the residual activity (STK11 (human)) was 103%. It also gave a residual activity (MAP4K4 (human)) of 91.1%, a residual activity (NTRK3 (human)) of 95.8% and a residual activity (AKT3 (human)) of 94.4%. For the same compound, the residual activity (NLK (human)) was 95.9%, the residual activity (MET (human)) was 103% and the residual activity (RPS6KA5 KD2 (human)) was 90%. The residual activity (DCLK2 (human)) was 89%, the residual activity (MAP3K9 (human)) was 92.7% and the residual activity (MAPK13 (human)) was 106%. It also gave a residual activity (ADRBK2 (human)) of 99.2%, a residual activity (LCK (human)) of 93.1% and a residual activity (IGF1R (human)) of 87.6%. For the same compound, the residual activity (SRC (human)) was 93.6%, the residual activity (MAP3K7 TAB1 (human)) was 94% and the residual activity (ERBB2 (human)) was 34%.
